Test results taken from ChEMBL document CHEMBL5154921, “Discovery and Characterization of the First Nonpeptide Antagonists for the Relaxin-3/RXFP3 System” (J Med Chem, 2022).
Activity calls are given as the source filed them. The calls are words filed in the database; no cut-off is given here.

Tests used:
[1] = target: Sodium-dependent dopamine transporter (Homo sapiens) (UniProt Q01959); assay: Inhibition of DAT receptor (unknown origin) at 10 uM relative to control
[2] = target: 5-hydroxytryptamine receptor 1E (Homo sapiens) (UniProt P28566); assay: Inhibition of serotonin 5-HT1E receptor (unknown origin) at 10 uM relative to control
Chain of 5-hydroxytryptamine receptor 1E (Homo sapiens) (P28566 whole entry): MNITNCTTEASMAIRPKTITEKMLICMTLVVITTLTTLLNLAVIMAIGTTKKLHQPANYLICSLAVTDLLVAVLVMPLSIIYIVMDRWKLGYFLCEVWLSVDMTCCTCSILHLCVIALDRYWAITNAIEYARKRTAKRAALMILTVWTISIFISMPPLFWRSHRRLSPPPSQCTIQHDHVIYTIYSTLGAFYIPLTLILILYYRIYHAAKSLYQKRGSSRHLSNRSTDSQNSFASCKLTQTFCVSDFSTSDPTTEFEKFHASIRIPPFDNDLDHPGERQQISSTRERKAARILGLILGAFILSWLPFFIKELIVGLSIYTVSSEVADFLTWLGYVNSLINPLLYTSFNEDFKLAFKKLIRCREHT

[3] = target: 5-hydroxytryptamine receptor 2A (Homo sapiens) (UniProt P28223); assay: Inhibition of serotonin 5-HT2A receptor (unknown origin) at 10 uM relative to control
[4] = target: D(3) dopamine receptor (Homo sapiens) (UniProt P35462); assay: Inhibition of dopamine D3 receptor (unknown origin) at 10 uM relative to control
Chain of D(3) dopamine receptor (Homo sapiens) (P35462 whole entry): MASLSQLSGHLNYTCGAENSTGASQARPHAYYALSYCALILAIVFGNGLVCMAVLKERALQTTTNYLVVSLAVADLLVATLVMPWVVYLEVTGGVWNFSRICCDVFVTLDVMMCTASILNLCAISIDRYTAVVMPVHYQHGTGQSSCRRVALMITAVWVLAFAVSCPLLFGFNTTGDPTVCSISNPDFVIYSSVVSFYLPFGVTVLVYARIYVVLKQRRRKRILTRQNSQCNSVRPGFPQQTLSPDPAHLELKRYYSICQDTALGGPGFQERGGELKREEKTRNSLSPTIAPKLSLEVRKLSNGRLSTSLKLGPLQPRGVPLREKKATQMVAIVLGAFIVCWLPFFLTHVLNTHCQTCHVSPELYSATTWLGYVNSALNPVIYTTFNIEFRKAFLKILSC

[5] = Unbound clearence in Wistar rat plasma at 10 mg/kg, ip measured upto 8 hrs post dose by LC-MS/MS analysis; format: ADME, organism-based; conditions: in vivo
Relaxin-3 receptor 1 [6] = target: T1, Relaxin-3 receptor 1 (Homo sapiens, UniProt Q9NSD7); assay: Antagonist activity at human RXFP3 expressed in CHO-K1 cells assessed as inhibition of relaxin-3 stimulated ERK1/2 phosphorylation preincubated for 15 mins followed by relaxin-3 addition for 5 mins; format: functional, cell-based
T1 sequence (Q9NSD7 whole entry): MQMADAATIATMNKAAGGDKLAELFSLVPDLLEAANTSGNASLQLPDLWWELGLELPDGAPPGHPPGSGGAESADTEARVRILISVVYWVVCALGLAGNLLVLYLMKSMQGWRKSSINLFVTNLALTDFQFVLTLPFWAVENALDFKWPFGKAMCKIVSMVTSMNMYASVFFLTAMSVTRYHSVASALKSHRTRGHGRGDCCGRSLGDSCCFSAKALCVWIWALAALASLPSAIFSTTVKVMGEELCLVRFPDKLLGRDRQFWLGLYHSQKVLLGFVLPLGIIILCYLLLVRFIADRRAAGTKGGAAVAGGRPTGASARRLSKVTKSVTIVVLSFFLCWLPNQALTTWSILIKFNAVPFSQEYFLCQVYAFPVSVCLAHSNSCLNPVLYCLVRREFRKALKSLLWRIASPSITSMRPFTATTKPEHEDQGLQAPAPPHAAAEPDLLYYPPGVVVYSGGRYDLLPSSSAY

[7] = target: 5-hydroxytryptamine receptor 3A (Homo sapiens) (UniProt P46098); assay: Inhibition of serotonin 5-HT3 receptor (unknown origin) at 10 uM relative to control
Chain of 5-hydroxytryptamine receptor 3A (Homo sapiens) (P46098 whole entry): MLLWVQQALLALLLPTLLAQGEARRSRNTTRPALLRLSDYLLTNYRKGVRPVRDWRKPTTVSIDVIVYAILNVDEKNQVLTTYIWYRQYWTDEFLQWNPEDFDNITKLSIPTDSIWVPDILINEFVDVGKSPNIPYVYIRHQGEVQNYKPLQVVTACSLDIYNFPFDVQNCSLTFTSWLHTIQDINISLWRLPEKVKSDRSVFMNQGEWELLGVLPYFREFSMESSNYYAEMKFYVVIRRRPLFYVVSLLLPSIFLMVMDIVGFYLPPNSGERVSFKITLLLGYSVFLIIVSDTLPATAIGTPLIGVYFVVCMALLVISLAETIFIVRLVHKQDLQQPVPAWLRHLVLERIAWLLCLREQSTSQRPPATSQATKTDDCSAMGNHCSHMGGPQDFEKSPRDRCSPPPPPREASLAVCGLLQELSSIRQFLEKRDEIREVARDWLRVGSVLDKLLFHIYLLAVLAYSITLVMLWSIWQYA

Homo sapiens = organism: Homo sapiens; assay: Inhibition of GABAA receptor (unknown origin) at 10 uM relative to control
[8] = target: D(1A) dopamine receptor (Homo sapiens) (UniProt P21728); assay: Inhibition of dopamine D1 receptor (unknown origin) at 10 uM relative to control
[9] = target: 5-hydroxytryptamine receptor 2B (Homo sapiens) (UniProt P41595); assay: Inhibition of serotonin 5-HT2B receptor (unknown origin) at 10 uM relative to control
[10] = target: Histamine H3 receptor (Homo sapiens) (UniProt Q9Y5N1); assay: Inhibition of histamine H3 receptor (unknown origin) at 10 uM relative to control
[11] = target: 5-hydroxytryptamine receptor 6 (Homo sapiens) (UniProt P50406); assay: Inhibition of serotonin 5-HT6 receptor (unknown origin) at 10 uM relative to control
Chain of 5-hydroxytryptamine receptor 6 (Homo sapiens) (P50406 whole entry): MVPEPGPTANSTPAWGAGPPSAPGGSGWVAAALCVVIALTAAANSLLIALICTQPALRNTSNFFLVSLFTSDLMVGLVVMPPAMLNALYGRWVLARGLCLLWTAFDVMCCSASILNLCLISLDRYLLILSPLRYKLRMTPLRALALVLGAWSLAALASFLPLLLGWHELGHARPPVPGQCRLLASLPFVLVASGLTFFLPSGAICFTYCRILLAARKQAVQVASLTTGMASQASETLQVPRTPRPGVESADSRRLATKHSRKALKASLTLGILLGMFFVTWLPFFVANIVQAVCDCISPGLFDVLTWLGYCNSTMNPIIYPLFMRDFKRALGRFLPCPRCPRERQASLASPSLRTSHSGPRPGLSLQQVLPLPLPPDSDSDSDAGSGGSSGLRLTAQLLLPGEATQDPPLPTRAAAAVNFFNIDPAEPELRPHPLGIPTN

Relaxin-3 receptor 1 [12] = target: T1, Relaxin-3 receptor 1; assay: Antagonist activity at human RXFP3 expressed in CHO-K1 cells assessed as [35S]GTPgammaS binding incubated for 1 hr by [35S]GTP-gammaS binding assay; format: functional, cell-based
[13] = AUCinfinity in Wistar rat brain at 10 mg/kg, ip measured upto 8 hrs post dose by LC-MS/MS analysis; format: ADME, organism-based; set-up: dose 10 mg/kg, time < 8 hrs, route ip
[14] = target: Histamine H2 receptor (Homo sapiens) (UniProt P25021); assay: Inhibition of histamine H2 receptor (unknown origin) at 10 uM relative to control
Chain of Histamine H2 receptor (Homo sapiens) (P25021 whole entry): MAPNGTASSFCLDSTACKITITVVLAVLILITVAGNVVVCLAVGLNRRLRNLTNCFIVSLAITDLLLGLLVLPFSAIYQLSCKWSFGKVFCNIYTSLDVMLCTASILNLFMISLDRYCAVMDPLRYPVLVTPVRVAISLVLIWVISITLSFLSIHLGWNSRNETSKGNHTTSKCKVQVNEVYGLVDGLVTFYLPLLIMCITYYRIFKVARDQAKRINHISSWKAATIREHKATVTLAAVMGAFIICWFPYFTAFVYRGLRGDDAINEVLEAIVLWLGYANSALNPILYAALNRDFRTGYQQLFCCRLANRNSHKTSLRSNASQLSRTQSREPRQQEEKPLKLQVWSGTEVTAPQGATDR

[15] = Efflux ratio of apparent permeability across basolateral to apical side over apical to basolateral side in MDCK-MDR1 cells measured upto 90 min by LC-MS/MS analysis; format: ADME, cell-based, Canis lupus familiaris; conditions: dog, mdck-mdr1, 1.5 h
[16] = target: Beta-2 adrenergic receptor (Homo sapiens) (UniProt P07550); assay: Inhibition of adrenergic beta-2 receptor (unknown origin) at 10 uM relative to control
[17] = target: Histamine H1 receptor (Homo sapiens) (UniProt P35367); assay: Inhibition of histamine H1 receptor (unknown origin) at 10 uM relative to control
Chain of Histamine H1 receptor (Homo sapiens) (P35367 whole entry): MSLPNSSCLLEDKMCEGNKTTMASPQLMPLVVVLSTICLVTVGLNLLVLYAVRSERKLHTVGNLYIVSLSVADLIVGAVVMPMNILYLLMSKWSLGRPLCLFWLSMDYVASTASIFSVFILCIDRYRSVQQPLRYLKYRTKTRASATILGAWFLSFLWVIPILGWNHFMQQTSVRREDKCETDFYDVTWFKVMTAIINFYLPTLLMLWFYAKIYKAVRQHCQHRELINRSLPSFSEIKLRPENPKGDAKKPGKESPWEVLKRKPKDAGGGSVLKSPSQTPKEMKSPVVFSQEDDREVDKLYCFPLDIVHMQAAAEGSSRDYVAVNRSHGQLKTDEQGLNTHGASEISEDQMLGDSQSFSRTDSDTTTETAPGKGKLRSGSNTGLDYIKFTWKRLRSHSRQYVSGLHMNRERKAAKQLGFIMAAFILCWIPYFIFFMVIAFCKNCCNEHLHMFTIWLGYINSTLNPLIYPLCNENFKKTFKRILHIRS

[18] = Tmax in Wistar rat brain at 10 mg/kg, ip measured upto 8 hrs post dose by LC-MS/MS analysis; format: ADME, organism-based; conditions: in vivo
[19] = target: Delta-type opioid receptor (Homo sapiens) (UniProt P41143); assay: Inhibition of opioid delta receptor (unknown origin) at 10 uM relative to control
Chain of Delta-type opioid receptor (Homo sapiens) (P41143 whole entry): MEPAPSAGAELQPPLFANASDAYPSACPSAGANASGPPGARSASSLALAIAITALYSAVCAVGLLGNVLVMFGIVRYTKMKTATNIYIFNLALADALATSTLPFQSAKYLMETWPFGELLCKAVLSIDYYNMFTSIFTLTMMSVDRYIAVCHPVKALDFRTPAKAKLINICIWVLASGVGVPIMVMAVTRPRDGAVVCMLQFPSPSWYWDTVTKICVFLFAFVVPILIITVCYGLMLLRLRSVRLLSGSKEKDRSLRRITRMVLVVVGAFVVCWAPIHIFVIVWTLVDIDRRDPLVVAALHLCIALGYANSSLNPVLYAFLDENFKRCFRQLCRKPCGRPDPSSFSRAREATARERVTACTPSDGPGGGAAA

[20] = target: Relaxin-3 receptor 2 (Homo sapiens) (UniProt Q8TDU9); assay: Antagonist activity at human RXFP4 expressed […]-K1 cells assessed as forskolin-induced cAMP accumulation at 100 uM incubated for 30 mins in presence of relaxin 3 relative to control; format: functional, cell-based; set-up: scale not given: the % may be the effect or the level left
[21] = target: Alpha-2C adrenergic receptor (Homo sapiens) (UniProt P18825); assay: Inhibition of adrenergic alpha-2C receptor (unknown origin) at 10 uM relative to control
Chain of Alpha-2C adrenergic receptor (Homo sapiens) (P18825 whole entry): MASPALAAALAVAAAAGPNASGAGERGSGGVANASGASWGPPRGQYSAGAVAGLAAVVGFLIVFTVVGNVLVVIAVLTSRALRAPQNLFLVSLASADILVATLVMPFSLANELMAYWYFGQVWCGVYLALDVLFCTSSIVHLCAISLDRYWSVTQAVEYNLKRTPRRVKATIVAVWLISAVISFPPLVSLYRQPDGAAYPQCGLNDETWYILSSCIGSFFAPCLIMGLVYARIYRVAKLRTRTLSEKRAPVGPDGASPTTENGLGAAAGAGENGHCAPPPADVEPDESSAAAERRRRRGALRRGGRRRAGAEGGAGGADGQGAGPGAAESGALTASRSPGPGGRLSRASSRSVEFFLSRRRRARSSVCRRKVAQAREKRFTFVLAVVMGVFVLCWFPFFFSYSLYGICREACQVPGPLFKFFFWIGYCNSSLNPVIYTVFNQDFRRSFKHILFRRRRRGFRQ

[22] = target: D(1B) dopamine receptor (Homo sapiens) (UniProt P21918); assay: Inhibition of dopamine D5 receptor (unknown origin) at 10 uM relative to control
Chain of D(1B) dopamine receptor (Homo sapiens) (P21918 whole entry): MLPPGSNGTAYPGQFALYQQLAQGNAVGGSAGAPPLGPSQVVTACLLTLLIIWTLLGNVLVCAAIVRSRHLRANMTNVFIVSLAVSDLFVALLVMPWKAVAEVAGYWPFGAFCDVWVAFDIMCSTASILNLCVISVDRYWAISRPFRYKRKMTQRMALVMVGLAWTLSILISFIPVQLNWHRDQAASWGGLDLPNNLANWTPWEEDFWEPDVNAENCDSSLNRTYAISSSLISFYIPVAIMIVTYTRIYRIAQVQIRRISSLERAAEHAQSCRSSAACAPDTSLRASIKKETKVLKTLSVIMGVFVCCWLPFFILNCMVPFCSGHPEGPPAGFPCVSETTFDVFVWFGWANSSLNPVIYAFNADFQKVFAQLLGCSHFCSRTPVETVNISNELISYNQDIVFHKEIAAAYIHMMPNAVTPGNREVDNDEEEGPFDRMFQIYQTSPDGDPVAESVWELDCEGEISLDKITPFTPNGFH

[23] = target: D(2) dopamine receptor (Homo sapiens) (UniProt P14416); assay: Inhibition of dopamine D2 receptor (unknown origin) at 10 uM relative to control
[24] = target: Histamine H4 receptor (Homo sapiens) (UniProt Q9H3N8); assay: Inhibition of histamine H4 receptor (unknown origin) at 10 uM relative to control
Chain of Histamine H4 receptor (Homo sapiens) (Q9H3N8 whole entry): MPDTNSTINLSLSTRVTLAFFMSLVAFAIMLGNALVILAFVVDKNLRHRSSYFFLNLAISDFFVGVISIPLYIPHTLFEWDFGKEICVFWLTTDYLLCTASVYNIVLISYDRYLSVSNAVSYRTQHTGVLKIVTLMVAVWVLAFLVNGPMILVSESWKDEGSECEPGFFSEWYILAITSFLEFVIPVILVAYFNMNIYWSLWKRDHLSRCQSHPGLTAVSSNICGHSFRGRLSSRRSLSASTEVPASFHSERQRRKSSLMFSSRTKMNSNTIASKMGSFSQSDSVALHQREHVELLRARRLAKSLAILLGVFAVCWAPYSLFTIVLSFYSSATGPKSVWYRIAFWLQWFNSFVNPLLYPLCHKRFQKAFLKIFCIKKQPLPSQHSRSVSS

[25] = target: Alpha-1A adrenergic receptor (Homo sapiens) (UniProt P35348); assay: Inhibition of adrenergic alpha-1A receptor (unknown origin) at 10 uM relative to control
Chain of Alpha-1A adrenergic receptor (Homo sapiens) (P35348 whole entry): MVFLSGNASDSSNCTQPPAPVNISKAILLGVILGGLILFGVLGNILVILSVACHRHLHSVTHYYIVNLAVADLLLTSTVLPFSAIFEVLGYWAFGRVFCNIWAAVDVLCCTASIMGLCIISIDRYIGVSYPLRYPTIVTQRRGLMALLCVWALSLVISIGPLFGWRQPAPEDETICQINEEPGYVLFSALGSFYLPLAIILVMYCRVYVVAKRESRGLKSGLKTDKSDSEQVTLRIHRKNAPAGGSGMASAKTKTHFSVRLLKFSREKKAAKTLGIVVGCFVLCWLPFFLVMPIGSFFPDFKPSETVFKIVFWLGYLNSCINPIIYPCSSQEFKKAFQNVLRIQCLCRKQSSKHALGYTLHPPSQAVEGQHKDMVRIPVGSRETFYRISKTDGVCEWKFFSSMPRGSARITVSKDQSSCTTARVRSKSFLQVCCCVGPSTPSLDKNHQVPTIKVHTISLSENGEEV

[26] = target: 5-hydroxytryptamine receptor 5A (Homo sapiens) (UniProt P47898); assay: Inhibition of serotonin 5-HT5A receptor (unknown origin) at 10 uM relative to control
[27] = target: Alpha-1B adrenergic receptor (Homo sapiens) (UniProt P35368); assay: Inhibition of adrenergic alpha-1B receptor (unknown origin) at 10 uM relative to control
[28] = Half life in Wistar rat brain at 10 mg/kg, ip measured upto 8 hrs post dose by LC-MS/MS analysis; format: ADME, organism-based; conditions: in vivo
[29] = target: Sigma intracellular receptor 2 (Homo sapiens, UniProt Q5BJF2); assay: Inhibition of sigma-2 receptor (unknown origin)
Chain of Sigma intracellular receptor 2 (Q5BJF2 whole entry): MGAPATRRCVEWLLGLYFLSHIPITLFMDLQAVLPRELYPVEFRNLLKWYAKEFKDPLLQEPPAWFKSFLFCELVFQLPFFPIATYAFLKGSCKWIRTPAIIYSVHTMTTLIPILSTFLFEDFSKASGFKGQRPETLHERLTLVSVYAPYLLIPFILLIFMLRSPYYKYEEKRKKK

[30] = target: Relaxin-3 receptor 1 (Homo sapiens) (UniProt Q9NSD7); assay: Negative allosteric modulator activity at human RXFP3 expressed in CHO-K1 cells assessed as forskolin-induced cAMP accumulation at 3 to 30 uM measured after 30 mins in presence of relaxin-3 by TR-FRET assay; format: functional, cell-based; conditions: filed as negative allosteric modulator, dose 3-30 µM

## O=C(Nc1ccc(-c2nc(-c3ccc(Cl)cc3)no2)cc1)C1CC(=O)N(Cc2ccco2)C1 (stereo unspecified)
[1]
  inhibition: < 50%
[2]
  inhibition: < 50%
[3]
  inhibition: < 50%
[4]
  inhibition: < 50%
[5]
  CL free: 43.8 mL/min/kg
Relaxin-3 receptor 1 [6]
  IC50: 13.9 µM
[7]
  inhibition: < 50%
Homo sapiens
  inhibition: < 50%
[8]
  inhibition: < 50%
[9]
  inhibition: < 50%
[10]
  inhibition: < 50%
[11]
  inhibition: < 50%
Relaxin-3 receptor 1 [12]
  IC50: 4.52 µM
[13]
  AUC(0-inf): 12.5 ng·h/mL
[14]
  inhibition: < 50%
[15]
  Ratio: 1
[16]
  inhibition: < 50%
[17]
  inhibition: < 50%
[18]
  Tmax: 2 h
[19]
  inhibition: < 50%
[20]
  Activity: < 30%
[21]
  inhibition: < 50%
[22]
  inhibition: < 50%
[23]
  inhibition: < 50%
[24]
  inhibition: < 50%
[25]
  inhibition: < 50%
[26]
  inhibition: < 50%
[27]
  inhibition: < 50%
[28]
  t1/2: 4.9 h
[29]
  Ki: 3.2 µM
[30]
  Activity: Active
